These results are taken from ChEMBL document CHEMBL1149548, “Synthesis, SAR, and X-ray structure of novel potent DPPIV inhibitors: oxadiazolyl ketones” (Bioorg Med Chem Lett, 2007).

SMILES strings stand for the structures.

A short description of data set [1]: Bioavailability in monkey at 5 mg/kg, po. As to conditions: rhesus monkey, in vivo. It is filed as ADME, organism-based, Macaca mulatta.
The test system of data set [2] is Rattus norvegicus. Kind of data set: Inhibition of basal plasma DPP4 activity in Sprague-Dawley rat at 1 mg/kg after 24 hrs. To be noted: read-out: Inhibition.
The nature of data set [3]: Bioavailability in dog at 5 mg/kg, po. It is filed as ADME, organism-based, Canis lupus familiaris. To be noted: in vivo.
For data set [4], the system named is Rattus norvegicus. Kind of data set: Inhibition of basal plasma DPP4 activity in Sprague-Dawley rat at 0.1 mg/kg after 1 hr. To be noted: read-out: Inhibition.
Data set [5] can be described thus: Cmax in rat at 5 mg/kg, po. In kind it is ADME, organism-based. More on the design: dose 5 mg/kg, route oral. As to conditions: in vivo.
Data set [6] concerns Rattus norvegicus. Nature of the data set: Inhibition of basal plasma DPP4 activity in Sprague-Dawley rat at 0.1 mg/kg after 24 hrs. As to conditions: read-out: Inhibition.
The nature of data set [7]: Cmax in monkey at 5 mg/kg, po. It is filed as ADME, organism-based, Macaca mulatta. More on the design: dose 5 mg/kg, route oral. To be noted: rhesus monkey, in vivo.
Data set [8] is described as follows: Plasma clearance in monkey at 5 mg/kg, iv or 5 mg/kg, po. In kind it is ADME, organism-based, Macaca mulatta. As to conditions: rhesus monkey.
Data set [9] concerns Rattus norvegicus. Nature of the data set: Inhibition of basal plasma DPP4 activity in Sprague-Dawley rat at 0.03 mg/kg after 1 hr. As to conditions: read-out: Inhibition.
Data set [10] concerns Rattus norvegicus. Nature of the data set: Inhibition of basal plasma DPP4 activity in Sprague-Dawley rat at 1 mg/kg after 1 hr. As to conditions: read-out: Inhibition.
The nature of data set [11]: Volume of distribution at steady state in dog at 5 mg/kg, iv or 5 mg/kg, po. It is filed as ADME, organism-based, Canis lupus familiaris. As to conditions: in vivo, read-out: Vdss.
A short description of data set [12]: Bioavailability in rat at 5 mg/kg, po. In kind it is ADME, organism-based. As to conditions: in vivo.
The target in another data set is Dipeptidyl peptidase 2 (Homo sapiens, UniProt Q9UHL4). Kind of data set: Inhibition of DPP2.
Data set [13] deals with Rattus norvegicus. Kind of data set: Inhibition of basal plasma DPP4 activity in Sprague-Dawley rat at 0.03 mg/kg after 24 hrs. To be noted: read-out: Inhibition.
A short description of data set [14]: Volume of distribution at steady state in rat at 5 mg/kg, iv or 5 mg/kg, po. In kind it is ADME, organism-based. To be noted: in vivo, read-out: Vdss.
A short description of data set [15]: Plasma clearance in dog at 5 mg/kg, iv or 5 mg/kg, po. It is filed as ADME, organism-based, Canis lupus familiaris.
The test system of data set [16] is Rattus norvegicus. Kind of data set: Inhibition of basal plasma DPP4 activity in Sprague-Dawley rat at 10 mg/kg after 1 hr. As to conditions: read-out: Inhibition.
Data set [17] can be described thus: Half life in monkey at 5 mg/kg, po. To be noted: rhesus monkey, in vivo. It is filed as ADME, organism-based, Macaca mulatta. Also on record: dose 5 mg/kg, route oral.
A short description of data set [18]: Half life in rat at 5 mg/kg, po. It is filed as ADME, organism-based. More on the design: dose 5 mg/kg, route oral. As to conditions: in vivo.
Data set [19] in a line: Plasma clearance in rat at 5 mg/kg, iv or 5 mg/kg, po. In kind it is ADME, organism-based.
Data set [20] in a line: Half life in dog at 5 mg/kg, po. It is filed as ADME, organism-based, Canis lupus familiaris. More on the design: dose 5 mg/kg, route oral. To be noted: in vivo.
Data set [21] is described as follows: Volume of distribution at steady state in monkey at 5 mg/kg, iv or 5 mg/kg, po. To be noted: rhesus monkey, in vivo, read-out: Vdss. It is filed as ADME, organism-based, Macaca mulatta.
In data set [22] the test system is Rattus norvegicus. Kind of data set: Inhibition of basal plasma DPP4 activity in Sprague-Dawley rat at 10 mg/kg after 24 hrs. As to conditions: read-out: Inhibition.
For a further data set, the target named is Dipeptidyl peptidase 8 (Homo sapiens, UniProt Q6V1X1). Nature of the data set: Inhibition of DPP8.
Chain of Dipeptidyl peptidase 8 (Q6V1X1 whole entry): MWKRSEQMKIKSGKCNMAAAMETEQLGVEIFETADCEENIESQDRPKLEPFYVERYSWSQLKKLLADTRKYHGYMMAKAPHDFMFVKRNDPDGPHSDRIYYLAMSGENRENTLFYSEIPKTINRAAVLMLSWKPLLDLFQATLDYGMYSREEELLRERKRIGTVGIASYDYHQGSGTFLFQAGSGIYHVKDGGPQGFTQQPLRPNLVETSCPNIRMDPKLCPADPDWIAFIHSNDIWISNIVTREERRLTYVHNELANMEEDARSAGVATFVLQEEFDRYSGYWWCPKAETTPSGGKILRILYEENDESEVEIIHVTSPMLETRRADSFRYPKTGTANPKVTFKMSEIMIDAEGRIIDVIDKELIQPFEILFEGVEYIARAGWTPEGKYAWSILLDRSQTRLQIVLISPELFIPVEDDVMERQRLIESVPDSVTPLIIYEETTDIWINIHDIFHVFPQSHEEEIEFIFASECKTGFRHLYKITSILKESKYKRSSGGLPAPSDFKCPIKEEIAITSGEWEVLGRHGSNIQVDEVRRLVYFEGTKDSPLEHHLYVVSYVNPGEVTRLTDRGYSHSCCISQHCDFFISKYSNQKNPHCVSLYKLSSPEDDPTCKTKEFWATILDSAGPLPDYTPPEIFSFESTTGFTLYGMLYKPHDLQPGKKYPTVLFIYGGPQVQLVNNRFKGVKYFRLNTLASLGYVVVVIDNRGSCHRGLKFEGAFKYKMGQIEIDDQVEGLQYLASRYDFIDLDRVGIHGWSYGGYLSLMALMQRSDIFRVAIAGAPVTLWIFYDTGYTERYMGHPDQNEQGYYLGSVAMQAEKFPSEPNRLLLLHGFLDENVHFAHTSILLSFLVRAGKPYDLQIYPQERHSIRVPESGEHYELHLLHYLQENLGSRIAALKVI

As to `CC(C)(CO)NCC(=O)N1C[C@@H](F)C[C@H]1C(=O)c1nnc(C(C)(C)C)o1`, the bioavailability in [1] came to 35%; in data set [3], 87%; in data set [12], 39%. Further, the inhibition in vivo at 1 mg/kg in the data set on Rattus norvegicus [2] was 50%; with Rattus norvegicus [10], 46%. Moreover, the inhibition in vivo at 0.1 mg/kg in the data set with Rattus norvegicus [4] and in the data set on Rattus norvegicus [6] was 82% throughout. The Cmax in [5] is 0.03 µg/mL; in data set [7], 0.21 µg/mL. For the same molecule, the clearance was found to be 1.08 L/h/kg in data set [8], 4.26 L/h/kg in data set [15] and 14.5 L/h/kg in data set [19]. Further, the inhibition in vivo at 0.03 mg/kg in the data set on Rattus norvegicus [9] stood at 66%; with Rattus norvegicus [13] it was 76%. For the same molecule, the Vd in [11] was found to be 4.87 L/kg; in data set [14], 14 L/kg; in data set [21], 2.42 L/kg. The molecule also returned an IC50 at Dipeptidyl peptidase 2 of 146 µM. The inhibition in vivo at 10 mg/kg with Rattus norvegicus [16] was found to be 68%; in the data set with Rattus norvegicus [22], 74%. The results for the half-life in data set [17], in data set [18] and in [20] were 4.63 h, 4.15 h and 1.47 h, respectively.

With `Cc1cc(C)c(-c2nnc(C(=O)[C@@H]3CCCN3C(=O)CNC(C)(C)C)o2)c(C)c1`, the IC50 against Dipeptidyl peptidase 8 and at Dipeptidyl peptidase 2 was below 0.39 µM throughout.

In the case of `CC(C)(C)NCC(=O)N1CCC[C@H]1C(=O)c1nnc(C2(C)CCCCC2)o1`, the IC50 at Dipeptidyl peptidase 8 is below 0.39 µM; at Dipeptidyl peptidase 2, 8.66 µM.

Take `CC(C)(C)NCC(=O)N1CCC[C@H]1C(=O)c1noc(C2(C)CCCCC2)n1`: the IC50 against Dipeptidyl peptidase 8 and on Dipeptidyl peptidase 2 was below 0.39 µM throughout.

Take `CC(C)(C)NCC(=O)N1C[C@@H](F)C[C@H]1C(=O)c1nnc(C2CCCCC2)o1`: the IC50 on Dipeptidyl peptidase 8 and against Dipeptidyl peptidase 2 was below 0.39 µM in each case.

`CC(C)(C)NCC(=O)N1CCC[C@H]1C(=O)c1nnc(C(C)(C)C)o1`: the IC50 against Dipeptidyl peptidase 2 is above 10 µM.

In the case of `CCC(C)(C)c1nnc(C(=O)[C@@H]2C[C@H](F)CN2C(=O)CNC(C)(C)C)o1`, the IC50 on Dipeptidyl peptidase 8 is below 0.39 µM; at Dipeptidyl peptidase 2, 97.2 µM.

For the molecule `CC(C)(C)NCC(=O)N1CCC[C@H]1C(=O)c1noc(-c2ccc(F)cc2)n1`, the IC50 on Dipeptidyl peptidase 8 and at Dipeptidyl peptidase 2 was below 0.39 µM each time.

By bioavailability is commonly meant dose-corrected exposure relative to a reference, in per cent. For orientation: Cmax means the peak of the concentration-time curve. One may read the IC50 as the midpoint of a concentration-inhibition curve. As a reminder, the half-life is how long it takes for the measured level to halve.
